This note sets out measurements from ChEMBL document CHEMBL1156043, “Selective inactivation of triosephosphate isomerase from Trypanosoma cruzi by brevifolin carboxylate derivatives isolated from Geranium bellum Rose” (Bioorg Med Chem Lett, 2009).

pIC50, pKd: −log10 of the molar value.

Test [1] has as its target T1, Triosephosphate isomerase, glycosomal (Trypanosoma cruzi, UniProt P52270). As to the kind of experiment: Inhibition of Trypanosoma cruzi recombinant triosephosphate isomerase after 2 hrs. To be noted: read-out: I50.
For test [2], the target named is Triosephosphate isomerase (Homo sapiens, UniProt P60174). As to the kind of experiment: Inhibition of human recombinant triosephosphate isomerase after 2 hrs. As to conditions: read-out: I50.
Sequence of Triosephosphate isomerase (P60174 whole entry): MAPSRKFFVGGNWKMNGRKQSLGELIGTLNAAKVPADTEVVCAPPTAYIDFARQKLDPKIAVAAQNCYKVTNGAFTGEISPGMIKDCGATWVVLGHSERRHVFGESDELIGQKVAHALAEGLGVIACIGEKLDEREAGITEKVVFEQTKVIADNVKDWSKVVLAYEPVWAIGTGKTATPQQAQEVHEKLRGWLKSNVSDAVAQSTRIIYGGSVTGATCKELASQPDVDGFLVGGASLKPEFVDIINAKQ
Test [3] deals with T1, Triosephosphate isomerase, glycosomal. As to the kind of experiment: Binding affinity to Trypanosoma cruzi recombinant triosephosphate isomerase. As to conditions: read-out: Kd(app).

T1 sequence (P52270 whole entry): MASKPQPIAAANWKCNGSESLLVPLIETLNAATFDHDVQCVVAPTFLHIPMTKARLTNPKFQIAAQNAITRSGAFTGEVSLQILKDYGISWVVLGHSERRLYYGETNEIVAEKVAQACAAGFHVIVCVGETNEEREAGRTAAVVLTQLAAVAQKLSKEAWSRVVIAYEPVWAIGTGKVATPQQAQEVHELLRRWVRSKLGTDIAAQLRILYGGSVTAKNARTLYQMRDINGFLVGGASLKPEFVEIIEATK

Take `COC(=O)C1CC(=O)c2oc(=O)c3cc(OC)c(OC)c(OC)c3c21` (centres undefined): the pIC50 in test [1] and in test [2] was less than 3.00 throughout.
On to `CCCCOC(=O)C1CC(=O)c2oc(=O)c3cc(O)c(O)c(O)c3c21` (centres undefined) [BUTYLBREVIFOLIN CARBOXYLATE], for which the pIC50 in test [1] was 4.85; in test [2], less than 3.00.
`CCOC(=O)C1CC(=O)c2oc(=O)c3cc(O)c(O)c(O)c3c21` (centres undefined) [ETHYLBREVIFOLIN CARBOXYLATE]: the pIC50 in test [1] is 5.10; in test [2] it was less than 3.00.
For orientation: pKd means −log10 of the Kd, conventionally taken in molar units. Take `COC(=O)C1CC(=O)c2oc(=O)c3cc(O)c(O)c(O)c3c21` (centres undefined) [METHYLBREVIFOLIN CARBOXYLATE]: the pIC50 in test [1] was 5.19; in test [2], less than 3.00. In addition, the pKd in test [3] was 4.98.
